# Results reported in paper PMC9411599.
# Read-outs that look alike come from different tables or passages of the source.
# What was measured:
# [1] = photoredox thiol-yne dihydrothiolation of acetylene by dithiol ([1+1] macrocyclisation, forms S-CH2CH2-S bridge); [Ir(d(tBu)(CF3)ppy)2(dtbbpy)]Cl 1 mol%, DIPEA 1.5 equiv, acetylene balloon, blue LEDs 455 nm; settings: the molecule shown is the open-chain precursor, DMF/H2O 50:1, 50.0 mM, 25.0 °C
# [2] = the molecule shown is the open-chain precursor
structure (smiles),measurement,setting,value
O=C(OCCOc1ccc(OCCOC(=O)c2ccccc2S)cc1)c1ccccc1S,"ring closure, isolated yield",[1]; 22-membered ring,0%
CC(CC(C)OC(=O)CCS)OC(=O)CCS (racemic) [8 (+/-)],"ring closure, isolated yield","[1]; 15-membered ring, 12.0 h",33%
"O=C(CCS)OCCCCCCOc1cccc2c1C1(CC2)CCc2cccc(OCCCCCCOC(=O)CCS)c21 (single isomer, unassigned) [51 ((R)-spirobiindane, stereo not in SMILES)]","ring closure, isolated yield","[1]; 31-membered ring, 12.0 h",21%
O=C(CS)OCCCCOC(=O)CS [4],"ring closure, isolated yield","[1]; 14-membered ring, 12.0 h",32%
O=C(CCS)OCCOC(=O)CCS [5],"ring closure, isolated yield","[1]; 14-membered ring, 12.0 h",42%
O=C(CCS)OCCCOC(=O)CCS [6],"ring closure, isolated yield","[1]; 15-membered ring, 12.0 h",30%
CC(COC(=O)CCS)COC(=O)CCS [7],"ring closure, isolated yield","[1]; 15-membered ring, 12.0 h",27%
CC(C)(COC(=O)CCS)COC(=O)CCS [9],"ring closure, isolated yield","[1]; 15-membered ring, 12.0 h",32%
O=C(CCS)OCCCCOC(=O)CCS [10],"ring closure, isolated yield","[1]; 16-membered ring, 12.0 h",36%
O=C(CCS)OCCCCCOC(=O)CCS [11],"ring closure, isolated yield","[1]; 17-membered ring, 12.0 h",38%
O=C(CCS)OCCCCCCOC(=O)CCS [12],"ring closure, isolated yield","[1]; 18-membered ring, 12.0 h",23%
O=C(CCCCCCC(=O)OCCS)OCCS [13],"ring closure, isolated yield","[1]; 18-membered ring, 12.0 h",28%
O=C(CCS)OCCCCCCCOC(=O)CCS [14 (=3)],"ring closure, isolated yield","[1]; 19-membered ring, 12.0 h",26%
O=C(CCS)OCCCCCCCCOC(=O)CCS [15],"ring closure, isolated yield","[1]; 20-membered ring, 12.0 h",22%
O=C(CCS)OCCCCCCCCCOC(=O)CCS [16],"ring closure, isolated yield","[1]; 21-membered ring, 12.0 h",24%
O=C(CCS)OCCCCCCCCCCOC(=O)CCS [17],"ring closure, isolated yield","[1]; 22-membered ring, 12.0 h",20%
O=C(CCS)OCCCCCCCCCCCCOC(=O)CCS [18],"ring closure, isolated yield","[1]; 24-membered ring, 12.0 h",25%
O=C(CCS)OCCCCCCCCCCCCCCOC(=O)CCS [19],"ring closure, isolated yield","[1]; 26-membered ring, 12.0 h",21%
O=C(OCCCCCCS)C(F)(F)C(F)(F)C(=O)OCCCCCCS [20],"ring closure, isolated yield","[1]; 22-membered ring, 12.0 h",33%
O=C(OCCCCCCS)C(F)(F)C(F)(F)C(F)(F)C(F)(F)C(=O)OCCCCCCS [21],"ring closure, isolated yield","[1]; 24-membered ring, 12.0 h",31%
O=C(COCC(=O)OCCCCCCS)OCCCCCCS [22],"ring closure, isolated yield","[1]; 23-membered ring, 12.0 h",23%
O=C(CCS)OCCOCCOC(=O)CCS [23],"ring closure, isolated yield","[1]; 17-membered ring, 12.0 h",29%
O=C(CCS)OCCOCCOCCOC(=O)CCS [24],"ring closure, isolated yield","[1]; 20-membered ring, 12.0 h",28%
O=C(CCS)OCCOCCOCCOCCOC(=O)CCS [25],"ring closure, isolated yield","[1]; 23-membered ring, 12.0 h",27%
O=C(CCS)OCCOCCOCCOCCOCCOCCOCCOCCOC(=O)CCS [26],"ring closure, isolated yield","[1]; 35-membered ring, 12.0 h",18%
O=C(CCS)OCCN(CCOC(=O)CCS)c1ccccc1 [27],"ring closure, isolated yield","[1]; 17-membered ring, 12.0 h",38%
CN(CC(=O)OCCCCCCS)CC(=O)OCCCCCCS [28],"ring closure, isolated yield","[1]; 23-membered ring, 12.0 h",24%
O=C(OCCCCCCS)[C@H]1CC[C@H](C(=O)OCCCCCCS)CC1 [29 (trans)],"ring closure, isolated yield","[1]; 24-membered ring, 12.0 h",26%
O=C(OCCCCCCS)C12CCC(C(=O)OCCCCCCS)(CC1)CC2 [30],"ring closure, isolated yield","[1]; 24-membered ring, 12.0 h",28%
O=C(OCCCCCCS)C12CC3CC(C1)CC(C(=O)OCCCCCCS)(C3)C2 [31],"ring closure, isolated yield","[1]; 23-membered ring, 12.0 h",32%
O=C(CCS)OCCN1CCN(CCOC(=O)CCS)CC1 [32],"ring closure, isolated yield","[1]; 20-membered ring, 12.0 h",21%
O=C(OCCCCCCS)c1ccccc1S [33],"ring closure, isolated yield","[1]; 14-membered ring, 12.0 h",25%
O=C(CCS)OCc1ccccc1COC(=O)CCS [34],"ring closure, isolated yield","[1]; 16-membered ring, 12.0 h",39%
O=C(COc1ccccc1OCC(=O)OCCCCCCS)OCCCCCCS [35],"ring closure, isolated yield","[1]; 26-membered ring, 12.0 h",24%
O=C(CCS)OCc1cccc(COC(=O)CCS)c1 [36],"ring closure, isolated yield","[1]; 17-membered ring, 12.0 h",37%
O=C(CCS)OCc1ccc(COC(=O)CCS)cc1 [37],"ring closure, isolated yield","[1]; 18-membered ring, 12.0 h",8%
O=C(CCS)OCCOc1ccc(OCCOC(=O)CCS)cc1 [38],"ring closure, isolated yield","[1]; 22-membered ring, 12.0 h",22%
O=C(CCS)OCCCOc1ccc2ccc(OCCCOC(=O)CCS)cc2c1 [39],"ring closure, isolated yield","[1]; 25-membered ring, 12.0 h",31%
O=C(CCS)OCc1cccc(COC(=O)CCS)n1 [40],"ring closure, isolated yield","[1]; 17-membered ring, 12.0 h",32%
O=C(CCS)OCc1ccc(COC(=O)CCS)o1 [41],"ring closure, isolated yield","[1]; 17-membered ring, 12.0 h",15%
O=C(OCCCCCCS)[c-]1cccc1.O=C(OCCCCCCS)[c-]1cccc1.[Fe+2] [42 (ferrocene)],"ring closure, isolated yield",[2],8%
"SCCCOc1ccc2ccccc2c1-c1c(OCCCS)ccc2ccccc12 [43 ((R)-BINOL, axial stereo not in SMILES)]","ring closure, isolated yield","[1]; 16-membered ring, 12.0 h",40%
"SCCCCCCOc1ccc2ccccc2c1-c1c(OCCCCCCS)ccc2ccccc12 [44 ((R)-BINOL, axial stereo not in SMILES)]","ring closure, isolated yield","[1]; 22-membered ring, 12.0 h",35%
"O=C(CCS)OCCCOc1ccc2ccccc2c1-c1c(OCCCOC(=O)CCS)ccc2ccccc12 [45 ((R)-BINOL, axial stereo not in SMILES)]","ring closure, isolated yield","[1]; 24-membered ring, 12.0 h",30%
"SCCCCCCCCOc1ccc2ccccc2c1-c1c(OCCCCCCCCS)ccc2ccccc12 [46 ((R)-BINOL, axial stereo not in SMILES)]","ring closure, isolated yield","[1]; 26-membered ring, 12.0 h",28%
"O=C(CCS)OCCCCCOc1ccc2ccccc2c1-c1c(OCCCCCOC(=O)CCS)ccc2ccccc12 [47 ((R)-BINOL, axial stereo not in SMILES)]","ring closure, isolated yield","[1]; 28-membered ring, 12.0 h",29%
"O=C(CCS)OCCCCCCOc1ccc2ccccc2c1-c1c(OCCCCCCOC(=O)CCS)ccc2ccccc12 [48 ((R)-BINOL, axial stereo not in SMILES)]","ring closure, isolated yield","[1]; 30-membered ring, 12.0 h",26%
"O=C(CCS)O[C@H]1CCCC[C@@H]1OC(=O)CCS [49 (1S,2S per text; SI product procedure names 1R,2R)]","ring closure, isolated yield","[1]; 14-membered ring, 12.0 h",38%
C[C@H](S)C(=O)NCC(=O)OCCCCCCS [50 (S per text; SI also names R)],"ring closure, isolated yield","[1]; 16-membered ring, 12.0 h",19%
SCCS [52 substrate (only [2+2])],"ring closure, isolated yield","[1]; 6-membered ring, 12.0 h",0%
OC(CS)C(O)CS (stereo not shown) [53 substrate (only [2+2])],"ring closure, isolated yield","[1]; 8-membered ring, 12.0 h",0%
SCCCS [54 substrate (only [2+2])],"ring closure, isolated yield","[1]; 7-membered ring, 12.0 h",0%
SCCCCS [55 substrate (only [2+2])],"ring closure, isolated yield","[1]; 8-membered ring, 12.0 h",0%
SCCCCCS [56 substrate (only [2+2])],"ring closure, isolated yield","[1]; 9-membered ring, 12.0 h",0%
SCCCCCCS [57 substrate (only [2+2])],"ring closure, isolated yield","[1]; 10-membered ring, 12.0 h",0%
SCCCCCCCCS [58 substrate (only [2+2])],"ring closure, isolated yield","[1]; 12-membered ring, 12.0 h",0%
SCCCCCCCCCS [59 substrate (only [2+2])],"ring closure, isolated yield","[1]; 13-membered ring, 12.0 h",0%
SCCCCCCCCCCS [60 substrate (only [2+2])],"ring closure, isolated yield","[1]; 14-membered ring, 12.0 h",0%
SCCOCCOCCS [62 (dimer 61)],"ring closure, isolated yield","[1]; 12-membered ring, 12.0 h",42%
SCCOCCS [64 (dimer 63)],"ring closure, isolated yield","[1]; 9-membered ring, 12.0 h",23%
SCCSCCCSCCS [66 (dimer 65)],"ring closure, isolated yield","[1]; 13-membered ring, 12.0 h",17%
